Laboratory results published in patent US20260266848A1, “COMPOSITIONS AND METHODS FOR DIAGNOSING AND TREATING DYSTONIA” (Duke University, priority 2023, published 2026).

What was measured:
DYT-TOR1A MEF EVs = assay: Quantitative LC-MS/MS proteomics of EVs from drug-treated DYT-TOR1A MEF cultures (ritonavir, salubrinal); type: cell-based, mouse; parameters: key to RTV Corrective Direction / RTV Corrective Direction, Grwd1 / RTV Corrective Direction, Srrm2 / RTV Corrective Direction, Rbm17 / RTV Corrective Direction, Dcaf8 / RTV Corrective Direction, Edil3 / RTV Corrective Direction, Timp3 / RTV Corrective Direction, Heatr3 / RTV Corrective Direction, Brd4 / RTV Corrective Direction, P3h4 / RTV Corrective Direction, Pacsin3 / RTV Corrective Direction, Naa50 / RTV Corrective Direction, Lpar6 / RTV Corrective Direction, Ndrg1 / RTV Corrective Direction, Kntc1 / RTV Corrective Direction, Cdk11b / RTV Corrective Direction, Sumo1 / RTV Corrective Direction, Lsm4 / RTV Corrective Direction, Hmga2 / RTV Corrective Direction, Cstf1 / RTV Corrective Direction, Tes / RTV Corrective Direction, Sbno1 / RTV Corrective Direction, Unc119b / RTV Corrective Direction, Cfdp1 / RTV Corrective Direction, Sec61b: YES = protein abundance effect opposite to DYT/WT; conditions: EV protein abundance; for RTV Corrective Direction: DYT + RTV (ritonavir) vs DYT, direction compared with DYT/WT; for DYT + RTV/DYT Cohen's d: ritonavir (RTV)-treated DYT vs DYT
WT MEF EVs = assay: Quantitative LC-MS/MS proteomics of EVs from ISRIB-treated WT MEF cultures; type: cell-based, mouse; parameters: key to ISRIB and DYT Parallel Direction / ISRIB and DYT Parallel Direction, Ctdsp1 / ISRIB and DYT Parallel Direction, Pcdh19 / ISRIB and DYT Parallel Direction, Tspan7 / ISRIB and DYT Parallel Direction, Myo1e / ISRIB and DYT Parallel Direction, Plpp3 / ISRIB and DYT Parallel Direction, Sh3bp4 / ISRIB and DYT Parallel Direction, Dnajc7 / ISRIB and DYT Parallel Direction, Drg1 / ISRIB and DYT Parallel Direction, Maea: YES = protein abundance effect similar to DYT/WT; conditions: EV protein abundance; for WT + ISRIB/WT Cohen's d: ISRIB-treated WT vs WT; for ISRIB and DYT Parallel Direction: WT + ISRIB vs WT, direction compared with DYT/WT

Col10a1
RTV Corrective Direction (DYT-TOR1A MEF EVs): YES | DYT + RTV/DYT Cohen's d (DYT-TOR1A MEF EVs): −3.41 | WT + ISRIB/WT Cohen's d (WT MEF EVs): 0.36 | ISRIB and DYT Parallel Direction (WT MEF EVs): YES

Cope
RTV Corrective Direction (DYT-TOR1A MEF EVs): YES | DYT + RTV/DYT Cohen's d (DYT-TOR1A MEF EVs): 7.24 | WT + ISRIB/WT Cohen's d (WT MEF EVs): −1.30 | ISRIB and DYT Parallel Direction (WT MEF EVs): YES

Cul3
RTV Corrective Direction (DYT-TOR1A MEF EVs): YES | DYT + RTV/DYT Cohen's d (DYT-TOR1A MEF EVs): 2.36 | WT + ISRIB/WT Cohen's d (WT MEF EVs): −0.66 | ISRIB and DYT Parallel Direction (WT MEF EVs): YES

Ddx39b
RTV Corrective Direction (DYT-TOR1A MEF EVs): YES | DYT + RTV/DYT Cohen's d (DYT-TOR1A MEF EVs): 13.79 | WT + ISRIB/WT Cohen's d (WT MEF EVs): −1.12 | ISRIB and DYT Parallel Direction (WT MEF EVs): YES

Dhx9
RTV Corrective Direction (DYT-TOR1A MEF EVs): YES | DYT + RTV/DYT Cohen's d (DYT-TOR1A MEF EVs): 6.23 | WT + ISRIB/WT Cohen's d (WT MEF EVs): −1.27 | ISRIB and DYT Parallel Direction (WT MEF EVs): YES
